Consider three compounds from patent publication EP2218450A1, “Memantine for treating bipolar mood disorders resistant to conventional treatments” (Serra, Gino, priority 2009, dated 2010).

The subject of assay [1] is dopamine receptor sensitization. The note with it: cited from earlier work.
Another assay relates to OCD. Conditions: cited from earlier work.
A further assay concerns bipolar patients. As to the method:
We report, in order to exemplify, the most clinically significant cases in bipolar patients (DSM IV-TR) resistant to hitherto available treatments.
Memantine was administered at 10-30 mg/day (according to the doses used for Alzheimer Disease and in many off-label uses of the drug in other psychiatric disorders) to 18 bipolar patients (mean age 42, range 24-61, SD 11): 13 BP type 1 (11 women and 2 men) and 5 BP type 2 (3 women and 2 men).
The Memantine treatment was added to the ongoing treatment which was left unmodified. The severity of the patients' condition before Memantine, and the change after Memantine addition was evaluated on the GCI-BP Overall Bipolar Illness scale: • GCI-BP Overall Bipolar Illness: Severity • 1. Normal, not ill; • 2. Minimally ill; • 3. Mildly ill; • 4. Moderately ill; • 5. Markedly ill; • 6. Severely ill; • 7. Very severely ill.
All patients have been followed-up for 24 weeks. […] Very much improved • 2. Much improved • 3. […] No change • 5. Minimally worse • 6. Much worse • 7. Very much worse

The next assay has as its system depressive symptoms. Conditions: cited from earlier work.
Another assay relates to binge eating disorder. Conditions: five obese patients affected by binge eating disorder; cited from earlier work.
The subject of the next assay is addictions. The note with it: cited from earlier work.
The next assay relates to NMDA glutamate receptor. The note with it: compared to more powerful NMDA antagonists such as phencyclidine, ketamine and MK-801; cited from earlier work.
The subject of the next assay is catatonic schizophrenia. Conditions: cited from earlier work.
Assay [2] relates to Pervasive development disorders. Conditions: five open clinical studies and one case report; cited from earlier work.
[3] abbreviates: at 24 weeks, Memantine 10-30 mg/day added to ongoing treatment, 18 bipolar patients.

Where two headings read alike, the source gives them in different places.

With `C[C@]12N[C@H](Cc3ccccc31)c1ccccc12` [MK.801], in assay [1], the “prevention of dopamine receptor sensitization induced by electroconvulsive shock” value is listed as “completely prevents” and the “prevention of dopamine receptor sensitization induced by imipramine” value is given as “completely prevents”.

As to `CC12CC3CC(C)(C1)CC(N)(C3)C2` [Memantine], in the assay with OCD (case reports, three patients with OCD, 5-15 mg a day), the “patients with symptomatic improvements” value is listed as “Two”. Further, the “patients with symptomatic improvement” value in the assay with OCD (open-label study, out of 14, Memantine 20 mg in combination with SSRIs) is reported as 6 patients. In addition, the “patients very much or much improved” value with bipolar patients (after 24 weeks of Memantine treatment, 18 bipolar patients) was found to be 72.2%. The “rapid cyclers that reached stability” value in the assay with bipolar patients (among the ten rapid cyclers, 24 weeks) is recorded as “six”. For the same compound, in the assay on bipolar patients (setting [3]), the “patients remained unchanged (score 4), GCI-BP overall Bipolar Illness: Change from preceding phase” value came out at 3 patients; the “patients scored 1 (very much improved), GCI-BP overall Bipolar Illness: Change from preceding phase” value was found to be 9 patients; the “patients scored 2 (much improved), GCI-BP overall Bipolar Illness: Change from preceding phase” value is listed as 4 patients; the “patients scored 3 (minimally improved), GCI-BP overall Bipolar Illness: Change from preceding phase” value stood at 2 patients. Besides, in the assay on bipolar patients (range 6-132, SD 48,4, Memantine 10-30 mg/day), the “mean time to improvement” value stood at 55 days. For the same compound, the “effect on depressive symptoms” value in the assay with depressive symptoms (patient, 10 mg/die) was “improvement in the depressive symptoms”. In the assay on depressive symptoms (person, 20 mg/die in combination with conventional antidepressant treatment, within a week), the “effect on depressive symptoms” value was “improvement in various depressive symptoms”. Moreover, the “effect on appetite, binge eating and body weight” value in the assay with binge eating disorder was “diminished appetite, the disappearance of binge eating (in two out of five patients) and a reduction of body weight”. For the same compound, in the assay with addictions, the “benefit in nicotine or cocaine addiction” value was “no benefit has been detected” and the “symptoms of heroin withdrawal” value is “effective in reducing the symptoms of heroin withdrawal”. The “symptoms of alcohol withdrawal syndrome” value with addictions (one study (41)) is “reduction of the symptoms of alcohol withdrawal syndrome”. Moreover, the craving for alcohol entry with addictions (two studies (39, 40)) is “reduction in craving for alcohol”. Also, the alcohol consumption result with addictions (two studies (42, 43), in one the effect did not significantly differ from placebo) is reported as “reduction in alcohol consumption”. Besides, the “affinity for the receptor” value in the assay on NMDA glutamate receptor is listed as “low affinity”. In the assay with catatonic schizophrenia (in combination with an atypical antipsychotic), the “effect in schizophrenia, controlled clinical trial” value is “No improvement was observed”. Besides, the “effect on symptoms of catatonic schizophrenia” value in the assay on catatonic schizophrenia (three case reports, 10 mg twice a day in two patients, 10 mg per day in the other) is recorded as “improvement in the symptoms”. Moreover, the effect on symptoms entry in assay [2] is “symptomatic improvement”.

As for `O=C(O)C1CN(CCCP(=O)(O)O)CCN1` (stereo not drawn) [CPP], the “prevention of dopamine D2 receptors sensitization induced by imipramine” value in [1] is “fails to pevent”.
